Among the data in US20050250818A1, “Ortho substituted aryl or heteroaryl amide compounds” (Pfizer Inc, priority 2004, published 2005) are IC50 values, retold here.

The term IC50 denotes the concentration that inhibits the measured activity by half. A higher IC50 goes with weaker potency.

The target of the experiment is T1, human EP4 receptors (Homo sapiens, UniProt P35408).
T1 construct: expressed in transfected cells
T1 sequence (P35408 whole entry): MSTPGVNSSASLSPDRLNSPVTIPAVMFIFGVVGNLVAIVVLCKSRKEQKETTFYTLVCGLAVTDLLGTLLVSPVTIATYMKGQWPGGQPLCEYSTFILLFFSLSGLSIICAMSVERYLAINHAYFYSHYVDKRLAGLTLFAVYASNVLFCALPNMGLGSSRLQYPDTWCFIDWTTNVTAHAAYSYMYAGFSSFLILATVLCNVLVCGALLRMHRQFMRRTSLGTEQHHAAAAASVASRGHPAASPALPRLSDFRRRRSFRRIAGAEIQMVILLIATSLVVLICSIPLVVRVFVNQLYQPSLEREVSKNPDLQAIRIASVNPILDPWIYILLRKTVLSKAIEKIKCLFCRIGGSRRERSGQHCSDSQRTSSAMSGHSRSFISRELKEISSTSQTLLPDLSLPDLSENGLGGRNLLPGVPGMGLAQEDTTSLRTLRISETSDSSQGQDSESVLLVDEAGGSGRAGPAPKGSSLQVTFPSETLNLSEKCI
Briefly: cAMP assay in human EP4 transfectant. The experiment is classed as cell-based. The conditions noted are these: HEK293 cells expressing human EP4 receptors; 1 nM PGE2, 0.2 mM IBMX, 37° C. for 10 min. As to the method:
cAMP Assay in Human EP4 Transfectant HEK293 cells expressing human EP4 receptors (hEP4 cells) are maintained in DMEM containing 10% FBS and 500 μg/ml geneticin. For harvesting hEP4 cells, culture medium is aspirated and cells in 75 cm^2 flask are washed with 10 ml of phosphate buffered saline (PBS). Another 10 ml of PBS is added to the cells and incubated for 20 min at room temperature. Human EP4 cells are harvested by pipetting and centrifuged at 300×g for 4 min. Cells are resuspended in DMEM without neutral red at a density of 7×10^5 cells/ml containing 0.2 mM IBMX (PDE inhibitor), 1 nM PGE2 and test compounds in PCR-tubes, and incubated at 37° C. for 10 min. The reaction is stopped by heating at 100° C. for 10 min with thermal cycler. Concentration of cAMP in reaction mixtures is determined with SPA cAMP Kit (Amersham) or cAMP Screen™ (Applied Biosystems) according to the manufacture's instruction. Reference: Eur. J. Pharmacol. 340 (1997) 227-241 cAMP assay in human EP4 transfectant were conducted using the method described above. IC50: the concentration of the individual compound required to reduce the amount of ligand by 50%.
On the technique in general: Changes in cAMP serve as a functional read-out for many G protein-coupled receptors.
`C[C@H](NC(=O)c1cc(Cl)ccc1OCc1cc(F)cc(F)c1)c1ccc(C(=O)O)cc1` [EXAMPLE 37, 4-[(1S)-1-({5-CHLORO-2-[(3,5-DIFLUOROBENZYL)OXY]BENZOYL}AMINO)ETHYL]BENZOIC ACID] registered a half-maximal inhibitory concentration (IC50) of 78 nM. This lies in the double-digit nanomolar range.

As for `C[C@H](NC(=O)c1cc(Cl)ccc1OCc1ccccc1)c1ccc(C(=O)O)cc1` [EXAMPLE 38, 4-((1S)-1-{[2-(BENZYLOXY)-5-CHLOROBENZOYL]AMINO}ETHYL)BENZOIC ACID], the IC50 was determined as 75 nM.

The compound `C[C@H](NC(=O)c1cc(Cl)cnc1OCc1ccccc1Cl)c1ccc(C(=O)O)cc1` [EXAMPLE 39, 4-{(1S)-1-[({5-CHLORO-2-[(2-CHLOROBENZYL)OXY]PYRIDIN-3-YL}CARBONYL)AMINO]ETHYL}BENZOIC ACID] came in with a half-maximal inhibitory concentration (IC50) of 76 nM. The IC50 values of the last two compounds are within 1.5-fold of each other.

`C[C@H](NC(=O)c1cc(Cl)cnc1OCc1ccc(Cl)cc1)c1ccc(C(=O)O)cc1` [EXAMPLE 40, 4-{(1S)-1-[({5-CHLORO-2-[(4-CHLOROBENZYL)OXY]PYRIDIN-3-YL}CARBONYL)AMINO]ETHYL}BENZOIC ACID] gave an IC50 of 72 nM.

`C[C@H](NC(=O)c1cc(Cl)ccc1OCc1ccccc1C#N)c1ccc(C(=O)O)cc1` [EXAMPLE 41, 4-[(1S)-1-({5-CHLORO-2-[(2-CYANOBENZYL)OXY]BENZOYL}AMINO)ETHYL]BENZOIC ACID] came in with a concentration for half-maximal inhibition (IC50) of 39 nM.

For `C[C@H](NC(=O)c1cc(Cl)ccc1OCCC1CCOCC1)c1ccc(C(=O)O)cc1` [EXAMPLE 42, 4-[(1S)-1-({5-CHLORO-2-[2-(TETRAHYDRO-2H-PYRAN-4-YL)ETHOXY]BENZOYL}AMINO)ETHYL]BENZOIC ACID], half-maximal inhibition (IC50) was put at 467 nM.

Turning to `C[C@H](NC(=O)c1cc(Cl)ccc1OCc1cccc(F)c1)c1ccc(C(=O)O)cc1` [EXAMPLE 43, 4-[(1S)-1-({5-CHLORO-2-[(3-FLUOROBENZYL)OXY]BENZOYL}AMINO)ETHYL]BENZOIC ACID], 140 nM corresponded to half-maximal inhibition (IC50). Against the preceding compound, the IC50 is about 3.3-fold lower.

In the case of `Cc1cc(COc2ccc(Cl)cc2C(=O)N[C@@H](C)c2ccc(C(=O)O)cc2)no1` [EXAMPLE 44, 4-[(1S)-1-({5-CHLORO-2-[(5-METHYLISOXAZOL-3-YL)METHOXY]BENZOYL}AMINO)ETHYL]BENZOIC ACID], the half-maximal inhibitory concentration (IC50) came to 130 nM. This IC50 and that of the compound before are within 1.5-fold of each other.

Take `C[C@H](NC(=O)c1cc(Cl)ccc1OCc1ccc(Cl)cc1F)c1ccc(C(=O)O)cc1` [EXAMPLE 45, 4-[(1S)-1-({5-CHLORO-2-[(4-CHLORO-2-FLUOROBENZYL)OXY]BENZOYL}AMINO)ETHYL]BENZOIC ACID]: the midpoint of inhibition, the IC50, lay at 65 nM.

`C[C@H](NC(=O)c1cc(Cl)ccc1OCc1ccc(F)cc1Cl)c1ccc(C(=O)O)cc1` [EXAMPLE 46, 4-[(1S)-1-({5-CHLORO-2-[(2-CHLORO-4-FLUOROBENZYL)OXY]BENZOYL}AMINO)ETHYL]BENZOIC ACID] displayed an IC50 of 55 nM.

In the case of `C[C@H](NC(=O)c1cc(Cl)ccc1OCc1ncccc1Cl)c1ccc(C(=O)O)cc1` [EXAMPLE 47, 4-[(1S)-1-({5-CHLORO-2-[(3-CHLOROPYRIDIN-2-YL)METHOXY]BENZOYL}AMINO)ETHYL]BENZOIC ACID], the IC50 stood at 480 nM. This IC50 is about 8.7-fold higher than that of the compound before.

For `C[C@H](NC(=O)c1cc(Cl)cnc1N(C)Cc1ccccc1Cl)c1ccc(C(=O)O)cc1` [EXAMPLE 48, 4-{(1S)-1-[({5-CHLORO-2-[(2-CHLOROBENZYL)(METHYL)AMINO]PYRIDIN-3-YL}CARBONYL)AMINO]ETHYL}BENZOIC ACID], the half-inhibitory concentration (IC50) is 100 nM. Compared with the last compound, the IC50 is about 4.8-fold lower.

As to `C[C@H](NC(=O)c1cc(Cl)ccc1OCC1CCCO1)c1ccc(C(=O)O)cc1` (stereo partly drawn) [EXAMPLE 49, 4-((1S)-1-{[5-CHLORO-2-(TETRAHYDROFURAN-2-YLMETHOXY)BENZOYL]AMINO}ETHYL)BENZOIC ACID], the concentration for half-maximal inhibition (IC50) is 360 nM.

`C[C@H](NC(=O)c1cc(Cl)cnc1N(C)Cc1ccccc1F)c1ccc(C(=O)O)cc1` [EXAMPLE 50, 4-{(1S)-1-[({5-CHLORO-2-[(2-FLUOROBENZYL)(METHYL)AMINO]PYRIDIN-3-YL}CARBONYL)AMINO]ETHYL}BENZOIC ACID] displayed a 50% inhibitory concentration (IC50) of 120 nM.

As to `C[C@H](NC(=O)c1cc(Cl)cnc1N(C)Cc1ccc(Cl)cc1)c1ccc(C(=O)O)cc1` [EXAMPLE 51, 4-{(1S)-1-[({5-CHLORO-2-[(4-CHLOROBENZYL)(METHYL)AMINO]PYRIDIN-3-YL}CARBONYL)AMINO]ETHYL}BENZOIC ACID], the IC50 came out at 25 nM. Against the preceding compound, the IC50 is about 4.8-fold lower.

Turning to `C[C@H](NC(=O)c1cc(Cl)cnc1N(C)Cc1cccc(Cl)c1)c1ccc(C(=O)O)cc1` [EXAMPLE 52, 4-{(1S)-1-[({5-CHLORO-2-[(3-CHLOROBENZYL)(METHYL)AMINO]PYRIDIN-3-YL}CARBONYL)AMINO]ETHYL}BENZOIC ACID], half-maximal inhibition (IC50) required 65 nM.

On to `C[C@H](NC(=O)c1cc(Cl)cnc1N(C)Cc1cccc(F)c1)c1ccc(C(=O)O)cc1` [EXAMPLE 53, 4-{(1S)-1-[({5-CHLORO-2-[(3-FLUOROBENZYL)(METHYL)AMINO]PYRIDIN-3-YL}CARBONYL)AMINO]ETHYL}BENZOIC ACID], for which the IC50 worked out at 180 nM.

`C[C@H](NC(=O)c1cc(Cl)cnc1N(C)Cc1ccc(F)cc1)c1ccc(C(=O)O)cc1` [EXAMPLE 54, 4-{(1S)-1-[({5-CHLORO-2-[(4-FLUOROBENZYL)(METHYL)AMINO]PYRIDIN-3-YL}CARBONYL)AMINO]ETHYL}BENZOIC ACID] showed an IC50 of 110 nM.
